Results: PubChem BioAssay (NCI)
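Interpolation was linear, between the two tested concentrations surrounding the appropriate level; five concentrations were tested over 48 hours in 96-well plates. GI50 marks 50% less growth. At the TGI there is no net growth.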

Assays:
Test in all cases: NCI-60 cell line screen, 48 h
[1] = test system: ACHN renal
[2] = test system: HCT-116 colon
[3] = test system: HOP-62 NSCLC
[4] = test system: HT29 colon
[5] = test system: NCI-H23 lung
[6] = test system: OVCAR-4 ovarian
[7] = test system: RPMI-8226 leukemia
[8] = test system: TK-10 renal
[9] = test system: U251 CNS
[10] = test system: UACC-62 melanoma

Structure (SMILES)	GI50 [1] [µM]	TGI [1] [µM]	GI50 [2] [µM]	TGI [2] [µM]	GI50 [3] [µM]	TGI [3] [µM]	GI50 [4] [µM]	TGI [4] [µM]	GI50 [5] [µM]	TGI [5] [µM]	GI50 [6] [µM]	TGI [6] [µM]	GI50 [7] [µM]	TGI [7] [µM]	GI50 [8] [µM]	TGI [8] [µM]	GI50 [9] [µM]	TGI [9] [µM]	GI50 [10] [µM]	TGI [10] [µM]
CC1=C(C#N)C23C(=O)c4ccccc4C(O)=C2C(=O)C=CC3(O)N1Cc1ccccc1 (centres undefined)	29.4	> 100	34.8	> 100	49.9	> 100	43.7	> 100	29.9	> 100	38.6	> 100	34	> 100	36.9	> 100	42	> 100	47.4	> 100
O=C1c2cccnc2-c2nc(-c3ccccc3[N+](=O)[O-])cc3c2c1nc1ccccc13	9.03	> 92.2	5.83	16.7	16	41	17.2	33.2	3.67	18.9	6.63	> 70.4	> 23.8	> 100	14.7	36.3	4	19.6	9.9	40.9
Fc1ccc(Nc2ncnc3ccc(-c4cnc5[nH]ccc5c4)cc23)cc1Cl	0.602	2.49	1.77	3.63	3.54	15.6	2.05	> 25.1	8.74	> 100	1.51	3.92	3.09	> 100	0.292	13.8	2.17	6.2	6.06	63.3
CCOc1ccccc1-n1c(CN2CCN(C(=O)COc3ccc(CNCCCCCCN4C5CCCC4CC(OC(=O)Nc4cc(C)ccc4OC)C5)cc3)CC2)nc2ccccc2c1=O (centres undefined)	2.4	5.9	0.616	1.32	1.7	3.25	0.798	2.05	1.93	3.66	1.75	3.34	1.13	3.4	1.72	3.14	0.61	1.2	1.77	3.22
CC1(C)COC(c2ccc(C(F)(F)F)cc2C(O)c2ccc3ccccc3c2)=N1 (centres undefined)	> 100	> 100		> 10	> 100	> 100		> 10	> 10	> 100	> 100	> 100		> 100	> 100	> 100	> 100	> 100	> 100	> 100
CC1=C(C(=O)Nc2ccccc2C)C(c2ccco2)C(C(=O)Nc2ccccc2C)=C(C)N1C		> 100		> 100		> 100		> 100		> 100		> 100		> 100		> 100		> 100		> 100
CCOC(=O)c1ncn2c1[nH]c(=S)c1ccccc12		> 100		> 100		> 100		> 100		> 100		> 100		> 100		> 100		> 100		> 100
COC(=O)Nc1nc2ccc(S(=O)c3ccccc3)cc2[nH]1 (centres undefined)	7.59	> 100	3.5	> 100	3.64	> 100	3.46	54.1	8.79	> 100	7.73	> 100	5.11	> 100	12.4	> 100	4.45	> 100	4.44	> 100
COc1ccc(/C=C\c2cc(OC)c3c(c2)OCO3)c(O)c1O		32.7		17.7		64.5		47.2		22.3		20.6		18.2		> 86.6		19.3		14
COc1ccc(-c2cc(-c3ccc(Nc4nc(Nc5ccccc5)nc(Nc5ccc(Cl)cc5)n4)cc3)nc(N)c2C#N)cc1	0.885	1.77	0.675	1.37	1.93	8.98	1.1	2.96	1.72	13.6	1.06	3.2	0.828	3.79	0.974	1.79	1.23	3.68	1.47	6.73
CSc1ccccc1C#C/C=C\C#Cc1ccccc1N1CCCC1=O	> 22.9	> 50		> 50	> 15.8	> 50	> 10.4	> 50	> 12.7	> 50	> 22.1	> 50	3.34		> 24.6	> 50	> 11	> 50		> 50
O=C(CN1CCN(c2cc3c(cc2F)c(=O)c(C(=O)N/N=C/c2ccccc2O)cn3C2CC2)CC1)N/N=C\c1ccccc1O	0.351	> 100	0.443	> 100	0.408	> 100	1.01	> 100	0.801	> 100	0.204	> 100	0.557	> 100	0.77	> 100	0.367	> 100	0.758	12.4
Cc1cc(=O)[nH]c2cc3oc4ccccc4c3cc12		> 100		> 100		> 100		> 100		> 100		> 100		> 100		> 100		> 86.6		> 100
Cc1cc(=O)n2[nH]c(-c3ccc(C(C)(C)C)cc3)cc2n1	5.65	> 100	8.25	> 100	17.5	76.9	5.12	> 100	4.03	80.6	12.7	> 100	3.89	54.8	3.5	61.8	3.24	64.5	3.83	> 100
O=C(NCCNc1nccc(-c2c(-c3cccc(O)c3)nc3sccn23)n1)c1ccccc1O	3.35	> 53.4	3.42	14.9	9.04	42.1	3.61	20.7	4.51	36.8	6.67	53.6	2.27	10.8	6.17	30.3	4.9	> 47.6	0.181	4.91
CCCCCCCC(=O)SCC/C=C/[C@@H]1CC(=O)NCc2cccc(n2)C2=N[C@@](C)(CS2)C(=O)N[C@@H](C(C)C)C(=O)N1	2.71	> 33.3	0.166	5.09	1.07	> 33.3	0.181	7.23	2.1	> 33.3	0.766	> 33.3	0.639	> 33.3	1.09	24.8	0.889	8.16	0.192	4.88
COc1ccc2c(c1)C(=O)/C(=C/c1ccc(OCC(=O)Nc3nccs3)cc1)O2	2.67	20.5	2.75	10.7	0.491	26	5.31	29.2	0.711	19.9	2.26	14.5	0.439	4.56	3.39	17.8	0.598	22.4	9.71	23.2
CC[C@@]12CCCN3CC[C@]4(c5cccc(OC)c5N(C(C)=O)[C@@H]4CC1)[C@H]32		> 100		> 100		> 100		44		> 100		> 100		> 100		> 100		> 100		> 100
O=C(/C=C/c1ccccc1Cl)c1ccc(Cl)c(Cl)c1		28.6		23.6		57.6		36		36.4		25.5		> 100		38.8		31.1		45.6
C=C(CNCCO)[C@@H]1CC[C@]2(CO)CC[C@]3(C)[C@H](CC[C@@H]4[C@@]5(C)CCC(N)C(C)(C)[C@@H]5CC[C@]43C)[C@@H]12 (some centres undefined)	12.2	25	1.81	3.84	2.79	7.36	1.86	3.89	4.66	17.6	3.42	13.6	2.03	4.73	2.54	7.07	1.55	2.89	1.8	3.36
O=C(O)C(Cc1ccccc1)N1C(=O)N/C(=C\c2ccc(F)cc2)C1=O (centres undefined)		> 100		> 100		> 100		> 100		> 100		> 100		> 100		> 100		> 100		> 100
